# Test results published in patent publication US20100244818A1, “APPARATUS AND METHOD FOR TRANSDUCING AN IN VITRO OR MAMMALIAN SYSTEM WITH A LOW-FREQUENCY SIGNAL” (priority 2006, published 2010).
# Key:
# [1] = the compound itself; not examined in the study; cited from earlier work
# tubulin = tubulin aggregation (polymerization) assay, OD 340 nm; format: biochemical
# Text: This assay has been described, for example, in Shelanski, M. L., Gaskin, F. and Cantor, C. R. (1973). Microtubule assembly in the absence of added nucleotides. Proc. Natl. Acad. Sci. U.S.A. 70, 765-768; and Lee, J. C. and Timasheff, S. N. (1977). In vitro reconstitution of calf brain microtubules: effects of solution variable. Biochemistry, 16, 1754-1762.
# The assay protocol was designed for performing a single assay in a cuvette using a spectrophotometer set at 340 nm in a kinetic mode. HTS-Tubulin was purchased from Cytoskeleton, Inc. and is supplied in multiple vials as lyophilized protein. […]
# The tubulin-assembly reaction was carried out by exposing the tubulin in GPEM buffer, at a concentration of 1.5 mg/ml to the following polymerization conditions: (i) a buffer (control), (ii) tubulin alone (2nd control); (iii) taxol, added to a final concentration of 4 μM, and (iv) the M2(3) taxol signal from above, transduced over a 20 minute period at a transduction voltage calculated to produce an approximately 1.693294 mG magnetic field. Change in optical absorption at 340 nm was measured continuously for each sample, and the OD340 data was used to calculate a rate of tubulin polymerization (dA/minute at 340 nm) at each one minute interval during the transduction study.
# The Vmax of the reaction was also calculated for each sample at the end of the 20 minute assay period. […]
smiles,measurement,setting,value
CC(=O)O[C@H]1C(=O)[C@@]2(C)[C@H]([C@H](OC(=O)c3ccccc3)[C@]3(O)C[C@H](OC(=O)[C@H](O)[C@@H](NC(=O)c4ccccc4)c4ccccc4)C(C)=C1C3(C)C)[C@]1(OC(C)=O)CO[C@@H]1C[C@@H]2O [taxol],delivery to the brain,[1],poorly deliver to the brain
same,rate of tubulin polymerization (dA/minute at 340 nm),"tubulin; at two minutes, taxol 4 μM, FIG. 16B",increased significantly
same,"Vmax (single composite, maximum rate of reaction over the entire assay)","tubulin; taxol at 4 μM, tubulin 1.5 mg/ml in GPEM buffer, end of 20 minute assay, FIG. 17",~1.8
